From ChEMBL document CHEMBL1134492, “Phenanthroindolizidine alkaloids as cytotoxic substances in a Danaid butterfly, Ideopsis similis, against human cancer cells” (J Med Chem, 2001)
≈ marks a conversion by molar mass, not a printed value.

What was measured:
Type in all cases: functional, cell-based
Details in all cases: Homo sapiens
K562 = experiment: Inhibitory concentration against K562 (leukemia) cell line
HeLa = experiment: Inhibitory concentration against HeLa (cervical cancer) cell line
A549 = experiment: Inhibitory concentration against A549 (lung cancer) cell line
DLD-1 = experiment: Inhibitory concentration against DLD-1 (colon cancer) cell line

SMILES | IC50 (K562) [ng/mL] | IC50 (HeLa) [ng/mL] | IC50 (A549) [ng/mL] | IC50 (DLD-1) [ng/mL]
COc1cc2c3c(c4ccc(O)c(OC)c4c2cc1OC)[C@H](O)[C@@H]1CCCN1C3 | 0.5 (≈ 1.26 nM) | 0.1 (≈ 0.253 nM) | 0.5 (≈ 1.26 nM) | 0.8 (≈ 2.02 nM)
COc1cc2c3c(c4ccc(O)cc4c2cc1OC)[C@H](O)[C@@H]1CCCN1C3 [TYLOPHORIDICINE E] | 0.4 (≈ 1.09 nM) | 0.8 (≈ 2.19 nM) | 0.4 (≈ 1.09 nM) | 0.5 (≈ 1.37 nM)
